target: T1, crosslinked smooth muscle actomyosin (chicken gizzard smooth muscle myosin subfragment-1 crosslinked to cardiac or skeletal actin) (Gallus gallus, UniProt P10587); test: Lead optimization pyruvate kinase/horseradish peroxidase/pyruvate oxidase-coupled ATPase assay (compound dose response); format: biochemical; details: read-out: IC50 Arithmetic Mean
T1 construct: chicken gizzard smooth muscle myosin subfragment-1; from tissue; host or cells: chicken gizzard
How it was run: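 IC50 is the midpoint of a 4-parameter dose–response fit of Amplex Red fluorescence (480/615 nm). Buffer was 12 mM potassium PIPES pH 7.00 at 22 °C with 100 mM KCl, 2 mM MgCl2, 0.15 mM ATP and 2 mM phosphate, with PK/pyruvate oxidase/HRP coupling. Enzyme: smooth muscle myosin S1 crosslinked to cardiac or skeletal actin, dosed empirically by activity.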

Point of comparison: `CCc1ccc(NC(=O)OCC2(C(=O)NCc3ccccc3Cl)CCCN(C(=O)[C@H](CO)NC(=O)OC(C)(C)C)C2)cc1` (stereo partly drawn) [N-[(1S)-2-(3-{N-[(2-chlorophenyl)methyl]carbamoyl}-3-{[N-(4-ethylphenyl)carbamoyloxy]methyl}piperidyl)-1-(hydroxymethyl)-2-oxoethyl](tert-butoxy)carboxamide], IC50 9.09 µM. Against it:
- CCc1ccc(NC(=O)OCC2(C(=O)NCc3ccccc3Cl)CCN(C(=O)C(C)N(C)C(=O)OC(C)(C)C)CC2)cc1 (centres unmarked) [(tert-butoxy)-N-[2-(4-{N-[(2-chlorophenyl)methyl]carbamoyl}-4-{[N-(4-ethylphenyl)carbamoyloxy]methyl}piperidyl)-1-methyl-2-oxoethyl]-N-methylcarboxamide] — within 1.5-fold, 6.18 µM
- CCc1ccc(NC(=O)OCC2(C(=O)NCc3ccccc3Cl)CCN(C(=O)CNC(=O)OC(C)(C)C)CC2)cc1 [(tert-butoxy)-N-[2-(4-{N-[(2-chlorophenyl)methyl]carbamoyl}-4-{[N-(4-ethylphenyl)carbamoyloxy]methyl}piperidyl)-2-oxoethyl]carboxamide] — 9.9-fold lower, 0.919 µM
- CCc1ccc(NC(=O)OCC2(C(=O)NCc3ccccc3)CCN(C(=O)CNC(=O)OC(C)(C)C)CC2)cc1 [(tert-butoxy)-N-[2-(4-{[N-(4-ethylphenyl)carbamoyloxy]methyl}-4-[N-benzylcarbamoyl]piperidyl)-2-oxoethyl]carboxamide] — within 1.5-fold, 11.1 µM
- CCc1ccc(NC(=O)OCC2(C(=O)NCc3ccccc3F)CCN(C(=O)CNC(=O)OC(C)(C)C)CC2)cc1 [(tert-butoxy)-N-[2-(4-{[N-(4-ethylphenyl)carbamoyloxy]methyl}-4-{N-[(2-fluorophenyl)methyl]carbamoyl}piperidyl)-2-oxoethyl]carboxamide] — 2.4-fold lower, 3.77 µM
- CCc1ccc(NC(=O)OCC2(C(=O)NCc3ccccc3C)CCN(C(=O)CNC(=O)OC(C)(C)C)CC2)cc1 [(tert-butoxy)-N-[2-(4-{[N-(4-ethylphenyl)carbamoyloxy]methyl}-4-{N-[(2-methylphenyl)methyl]carbamoyl}piperidyl)-2-oxoethyl]carboxamide] — 9.3-fold lower, 0.975 µM
- CCc1ccc(NC(=O)OCCN(CCN(C)C(=O)OC(C)(C)C)C(=O)NCc2ccccc2Cl)cc1 [(tert-butoxy)-N-[2-({[(2-chlorophenyl)methyl]amino}-N-{2-[N-(4-ethylphenyl)carbamoyloxy]ethyl}carbonylamino)ethyl]-N-methylcarboxamide] — 2-fold higher, 18.2 µM
- CCc1ccc(NC(=O)OCC2(C(=O)NCc3ccccc3Cl)CCN(C(=O)CCCNC(=O)OC(C)(C)C)CC2)cc1 [(tert-butoxy)-N-[4-(4-{N-[(2-chlorophenyl)methyl]carbamoyl}-4-{[N-(4-ethylphenyl)carbamoyloxy]methyl}piperidyl)-4-oxobutyl]carboxamide] — 19-fold lower, 0.481 µM
- CCc1ccc(NC(=O)OCC2(C(=O)NCc3ccccn3)CCN(C(=O)CN)CC2)cc1 [({1-(2-aminoacetyl)-4-[N-(2-pyridylmethyl)carbamoyl](4-piperidyl)}methoxy)-N-(4-ethylphenyl)carboxamide] — within 1.5-fold, 7.22 µM
- CCc1ccc(NC(=O)OCC2(C(=O)NCc3ncc[nH]3)CCN(C(=O)CN)CC2)cc1 [({1-(2-aminoacetyl)-4-[N-(imidazol-2-ylmethyl)carbamoyl](4-piperidyl)}methoxy)-N-(4-ethylphenyl)carboxamide] — 2-fold higher, 18.5 µM
- CCc1ccc(NC(=O)OCC2(C(=O)NCc3cccc4ccccc34)CCN(C(=O)CN)CC2)cc1 [({1-(2-aminoacetyl)-4-[N-(naphthylmethyl)carbamoyl](4-piperidyl)}methoxy)-N-(4-ethylphenyl)carboxamide] — 21-fold lower, 0.439 µM
- CCc1ccc(NC(=O)OCC2(C(=O)NCc3ccccc3Cl)CCN(C(=O)NCCN)CC2)cc1 [N-(2-aminoethyl)(4-{N-[(2-chlorophenyl)methyl]carbamoyl}-4-{[N-(4-ethylphenyl)carbamoyloxy]methyl}piperidyl)carboxamide] — 57-fold lower, 0.159 µM
- CCc1ccc(NC(=O)OCCN(CCN)C(=O)NCc2ccccc2Cl)cc1 [N-(2-aminoethyl){[(2-chlorophenyl)methyl]amino}-N-{2-[N-(4-ethylphenyl)carbamoyloxy]ethyl}carboxamide] — 3.2-fold lower, 2.83 µM
- CCc1ccc(NC(=O)OCCN(CCCN)C(=O)NCc2ccccc2Cl)cc1 [N-(3-aminopropyl){[(2-chlorophenyl)methyl]amino}-N-{2-[N-(4-ethylphenyl)carbamoyloxy]ethyl}carboxamide] — 3.6-fold lower, 2.54 µM
- CCc1ccc(NC(=O)OCCN(CCCCCN)C(=O)NCc2ccccc2Cl)cc1 [N-(5-aminopentyl){[(2-chlorophenyl)methyl]amino}-N-{2-[N-(4-ethylphenyl)carbamoyloxy]ethyl}carboxamide] — 19-fold lower, 0.487 µM
- CCc1ccc(NC(=O)OC[C@@H]2C[C@@H](NC(=O)CN)CN2C(=O)NCc2ccccc2Cl)cc1 [N-((5S,3R)-1-{N-[(2-chlorophenyl)methyl]carbamoyl}-5-{[N-(4-ethylphenyl)carbamoyloxy]methyl}pyrrolidin-3-yl)-2-aminoacetamide] — 39-fold lower, 0.234 µM
- CCc1ccc(NC(=O)OC[C@@H]2C[C@@H](NC(C)=O)CN2C(=O)NCc2ccccc2Cl)cc1 [N-((5S,3R)-1-{N-[(2-chlorophenyl)methyl]carbamoyl}-5-{[N-(4-ethylphenyl)carbamoyloxy]methyl}pyrrolidin-3-yl)acetamide] — 4.9-fold lower, 1.86 µM
- CCc1ccc(NC(=O)NCCN(C)C(=O)NCc2ccccc2Cl)cc1 [N-[2-({[(2-chlorophenyl)methyl]amino}-N-methylcarbonylamino)ethyl][(4-ethylphenyl)amino]carboxamide] — within 1.5-fold, 6.75 µM
- CCc1ccc(CC(=O)NCC2(C(=O)NCc3ccccc3Cl)CCN(C(=O)CN)CC2)cc1 [N-[(1-(2-aminoacetyl)-4-{N-[(2-chlorophenyl)methyl]carbamoyl}(4-piperidyl))methyl]-2-(4-ethylphenyl)acetamide] — 1.6-fold higher, 14.9 µM
- CCc1ccc(NC(=O)N(CCN)CC2(C(=O)NCc3ccccc3Cl)CCN(C(=O)CN)CC2)cc1 [N-[(1-(2-aminoacetyl)-4-{N-[(2-chlorophenyl)methyl]carbamoyl}(4-piperidyl))methyl]-N-(2-aminoethyl)[(4-ethylphenyl)amino]carboxamide] — 1.8-fold higher, 16.4 µM
- CCc1ccc(NC(=O)N(CCCOC)CC2(C(=O)NCc3ccccc3Cl)CCN(C(=O)CN)CC2)cc1 [N-[(1-(2-aminoacetyl)-4-{N-[(2-chlorophenyl)methyl]carbamoyl}(4-piperidyl))methyl][(4-ethylphenyl)amino]-N-(3-methoxypropyl)carboxamide] — within 1.5-fold, 12.4 µM
- CCc1ccc(NC(=O)OCC2(C(=O)NCc3ccccc3Cl)CCN(C(=O)[C@@H](CO)NC(=O)OC(C)(C)C)CC2)cc1 [N-[(1R)-2-(4-{N-[(2-chlorophenyl)methyl]carbamoyl}-4-{[N-(4-ethylphenyl)carbamoyloxy]methyl}piperidyl)-1-(hydroxymethyl)-2-oxoethyl](tert-butoxy)carboxamide] — 2.6-fold lower, 3.5 µM
- CCc1ccc(NC(=O)OCC2(C(=O)NCc3ccccc3Cl)CCN(C(=O)[C@@H](C)NC(=O)OC(C)(C)C)CC2)cc1 [N-[(1R)-2-(4-{N-[(2-chlorophenyl)methyl]carbamoyl}-4-{[N-(4-ethylphenyl)carbamoyloxy]methyl}piperidyl)-1-methyl-2-oxoethyl](tert-butoxy)carboxamide] — within 1.5-fold, 12 µM

— patent publication US8071625B2, “Certain chemical entities, compositions, and methods” (Cytokinetics, Inc., priority 2006, dated 2011)
